# According to US9290476B2, “Methylene linked quinolinyl modulators of RORγt” (Janssen Pharmaceutica NV, priority 2012, dated 2016):
# Where a name gives a salt, the structure may show the parent alone.
# Columns and labels:
# human RORγt LBD = human RORγt LBD (Homo sapiens (Human), UniProt P51449); test: RORγt reporter assay (GAL4-RORγt LBD luciferase in HEK293T cells); format: cell-based; details: for RORγt reporter Assay, % inhibition @ 6 μM / IC50: HEK293T cells; for IC50: 24 hours compound treatment; for inhibition at 6 µM: HEK-293T, read-out: RORγt reporter Assay, % inhibition @ 6 μM, HEK293T cells, 6 μM
# Excerpt: A reporter assay was used to test functional activity of RORγt modulatory compounds on transcriptional activation driven by the RORγt LBD. Cells used in the assay were co-transfected with two constructs. The first construct, pBIND-RORγt LBD, contained the wild type human RORγt LBD fused to the DNA binding domain of the GAL4 protein. The second construct, pGL4.31 (Promega Cat no. C935A), contained multiple GAL4 responsive DNA elements upstream of firefly luciferase. […] The mutant construct was called pBIND-RORγt-AF2.
# The pBIND vector contains the GAL4 DNA Binding Domain (GAL4 DBD) and the renilla luciferase gene under control of the SV40 promoter. Renilla luciferase expression serves as a control for transfection efficiency and cell viability.
# The reporter assay was performed by transiently transfecting HEK293T cells with 5 ng of pBIND-RORγt LBD or pBIND-RORγt LBD-AF2 and 5 μg pGL4.31 (Promega Cat no. C935A) using Fugene 6 ([…] Cat no. E2691) at a 1:6 ratio of DNA: Fugene 6 in a T-75 flask in which cells were at least 80% confluent. Twenty four hours after bulk transfection, cells were plated into 96-well plates at 50,000 cells/well in phenol-red free DMEM containing 5% Lipid Reduced FCS and Pen/Strep. Six hours after plating, cells were treated with compounds for 24 hours. Media was removed and cells were lysed with 50 μL 1× Glo Lysis Buffer (Promega). Dual Glo Luciferase Reagent (50 μL/well) was then added and firefly luciferase luminescence was read on an Envision after a ten minute incubation. Finally, Stop and Glo reagent (50 μL/well) was added and renilla luciferase luminescence was read on an Envision after a ten minute incubation. To calculate the effect of compounds on RORγt activity, the ratio of firefly to renilla luciferase was determined and plotted against compound concentration. Agonist compounds increase RORγt-driven luciferase expression, and antagonist or inverse agonist compounds decrease luciferase expression.
# [1] = biological target: human RORγt ligand binding domain (RORγt LBD) (Homo sapiens (Human), UniProt P51449); test: RORγt ThermoFluor assay (thermal shift binding affinity); details: estimated from thermal shift
# Experimental: This approach is applicable to a wide variety of systems, and rigorous in theoretical interpretation through quantitation of equilibrium binding constants (KD).
# The shift in the melting point described as a ΔTm is proportional to the concentration and affinity of the ligand.
# RORγt ThermoFluor® Assay Construct
# Protein and compound solutions are dispensed into black 384-well polypropylene PCR microplates (Abgene) and overlayed with silicone oil (1 μL, Fluka, type DC 200) to prevent evaporation.
# Bar-coded assay plates are robotically loaded onto a thermostatically controlled PCR-type thermal block and then heated at a typical ramp-rate of 1° C./min for all experiments. Fluorescence was measured by continuous illumination with UV light (Hamamatsu LC6) supplied via fiber optic and filtered through a band-pass filter (380-400 nm; >6 OD cutoff). Fluorescence emission of the entire 384-well plate was detected by measuring light intensity using a CCD camera (Sensys, Roper Scientific) filtered to detect 500±25 nm, resulting in simultaneous and independent readings of all 384 wells. Images were collected at each temperature, and the sum of the pixel intensity in a given area of the assay plate was recorded versus temperature. Reference wells contained RORγt without compounds, and the assay conditions were as follows: • 0.065 mg/mL RORγt • 60 μM 1,8-ANS • 100 mM Hepes, pH 7.0 • 10 mM NaCl • 2.5 mM GSH • 0.002% Tween-20
# Project compounds were arranged in a pre-dosed mother plate (Greiner Bio-one) wherein compounds are serially diluted in 100% DMSO by 1:2 from a high concentration of 10 mM over 12 columns within a series (column 12 is a reference well containing DMSO, no compound). The compounds were robotically dispensed directly into assay plates (1×=46 nL) using a Hummingbird capillary liquid handling instrument (Digilab). Following compound dispense, protein and dye in buffer was added to achieve the final assay volume of 3 μL, followed by 1 μL of silicone oil.
# human RORγt ligand binding domain (RORγt LBD), sequence (P51449 other isoform, or with tags, fused parts or gaps): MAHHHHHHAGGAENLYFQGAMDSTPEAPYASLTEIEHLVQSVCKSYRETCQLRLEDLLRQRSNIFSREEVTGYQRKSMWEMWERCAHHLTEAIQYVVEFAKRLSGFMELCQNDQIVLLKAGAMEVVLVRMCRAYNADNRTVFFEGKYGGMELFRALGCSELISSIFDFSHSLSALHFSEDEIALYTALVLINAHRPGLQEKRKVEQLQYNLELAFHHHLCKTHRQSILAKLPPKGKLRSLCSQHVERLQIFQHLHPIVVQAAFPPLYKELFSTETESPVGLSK
# human RORγt LBD, sequence (P51449 258-518): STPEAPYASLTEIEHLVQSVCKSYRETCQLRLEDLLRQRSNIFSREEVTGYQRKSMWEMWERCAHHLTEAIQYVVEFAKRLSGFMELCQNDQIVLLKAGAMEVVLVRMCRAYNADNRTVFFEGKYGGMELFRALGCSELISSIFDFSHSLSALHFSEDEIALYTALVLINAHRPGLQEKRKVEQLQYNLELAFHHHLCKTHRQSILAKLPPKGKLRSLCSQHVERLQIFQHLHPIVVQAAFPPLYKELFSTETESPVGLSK
SMILES,"RORγt reporter Assay, % inhibition @ 6 μM (human RORγt LBD)",IC50 (human RORγt LBD),Kd [1],inhibition at 6 µM (human RORγt LBD)
"Cn1cncc1C(O)(c1ccc(Cl)cc1)c1ccc2nc(O)c(Cc3ccc(-n4cccn4)cc3)c(Cl)c2c1 (single isomer, unassigned) [Example 55C, 3-(4-(1H-pyrazol-1-yl)benzyl)-4-chloro-6-((4-chlorophenyl)(hydroxy)(1-methyl-1H-imidazol-5-yl)methyl)quinolin-2-ol]",92%,3.2 µM,3.5 µM,–
"COc1nc2ccc(C(O)(c3ccc(C#N)cc3)c3cncn3C)cc2c(C#N)c1Cc1ccc(C(F)(F)F)cc1 (stereo not drawn) [Example 96A, 6-((4-cyanophenyl)(hydroxy)(1-methyl-1H-imidazol-5-yl)methyl)-2-methoxy-3-(4-(trifluoromethyl)benzyl)quinoline-4-carbonitrile]",–,0.0078 µM,0.0019 µM,99%
"COc1nc2ccc(C(O)(c3ccc(Cl)cc3)c3cncn3C)cc2c(Cl)c1Cc1ccc(-n2cncn2)cc1 (single isomer, unassigned) [Example 64B, (3-(4-(1H-1,2,4-triazol-1-yl)benzyl)-4-chloro-2-methoxyquinolin-6-yl)(4-chlorophenyl)(1-methyl-1H-imidazol-5-yl)methanol]",–,–,–,101%
"OC(c1cccnc1)(c1cccc(Cl)c1)c1ccc2nc(Cl)c(Cc3ccc(Cl)cc3)c(Cl)c2c1 (stereo not drawn) [Example 2, (3-Chlorophenyl)-(2,4-dichloro-3-(4-chlorobenzyl)quinolin-6-yl)-(pyridin-3-yl)methanol.TFA]",–,0.05 µM,–,70%
"COc1nc2c(C)cc(C(O)(c3ccc(C(F)(F)F)nc3)c3cncn3C)cc2c(Cl)c1Cc1ccc(-n2cccn2)cc1 (stereo not drawn) [Example 29A, (3-(4-(1H-Pyrazol-1-yl)benzyl)-4-chloro-2-methoxy-8-methylquinolin-6-yl)(1-methyl-1H-imidazol-5-yl)(6-(trifluoromethyl)pyridin-3-yl)methanol]",–,0.091 µM,0.0048 µM,96%
"COc1nc2c(C)cc(C(O)(c3cncn3C)c3cncn3C)cc2c(Cl)c1Cc1ccc(S(C)(=O)=O)cc1 [Example 57, (4-Chloro-2-methoxy-8-methyl-3-(4-(methylsulfonyl)benzyl)quinolin-6-yl)bis(1-methyl-1H-imidazol-5-yl)methanol.Succinate]",–,0.057 µM,0.0084 µM,100%
"COc1ccc(Cc2c(Cl)nc3ccc(C(O)(c4ccc(Cl)cc4)c4cncn4C)cc3c2Cl)cc1 (stereo not drawn) [Example 12, (4-Chlorophenyl)(2,4-dichloro-3-(4-methoxybenzyl)quinolin-6-yl)(1-methyl-1H-imidazol-5-yl)methanol.TFA]",–,~7 µM,0.016 µM,77%
"COc1nc2c(F)cc(C(O)(c3ccc(C(F)(F)F)nc3)c3cncn3C)cc2c(Cl)c1Cc1ccc(-n2cccn2)cc1 (single isomer, unassigned) [Example 58C, (3-(4-(1H-pyrazol-1-yl)benzyl)-4-chloro-8-fluoro-2-methoxyquinolin-6-yl)(1-methyl-1H-imidazol-5-yl)(6-(trifluoromethyl)pyridin-3-yl)methanol]",109%,0.66 µM,0.27 µM,–
"COc1ccc(Cc2c(OC)nc3ccc(C(O)(c4ccc(Cl)cc4)c4cncn4C)cc3c2Cl)cc1 (stereo not drawn) [Example 13, (4-Chloro-2-methoxy-3-(4-methoxybenzyl)quinolin-6-yl)(4-chlorophenyl)(1-methyl-1H-imidazol-5-yl)methanol.TFA]",–,~1 µM,0.031 µM,70%
"COc1nc2ccc(C(O)(c3ccc(C)nc3C)c3cnnn3C)cc2c(C#N)c1Cc1ccc(C(F)(F)F)cc1 (single isomer, unassigned) [Example 78B, 6-((2,6-Dimethylpyridin-3-yl)(hydroxy)(1-methyl-1H-1,2,3-triazol-5-yl)methyl)-2-methoxy-3-(4-(trifluoromethyl)benzyl)quinoline-4-carbonitrile]",–,–,–,94%
"COc1nc2ccc(C(O)(c3cnnn3C)c3cnc(C)n3C)cc2c(Cl)c1Cc1ccc(C(F)(F)F)cc1 (stereo not drawn) [Example 80A, (4-Chloro-2-methoxy-3-(4-(trifluoromethyl)benzyl)quinolin-6-yl)(1,2-dimethyl-1H-imidazol-5-yl)(1-methyl-1H-1,2,3-triazol-5-yl)methanol]",–,–,–,103%
"OC(c1cccnc1)(c1cccc(Cl)c1)c1ccc2nc(Cl)c(Cc3ccc(F)cc3)c(Cl)c2c1 (stereo not drawn) [Example 3, (3-Chlorophenyl)-(2,4-dichloro-3-(4-fluorobenzyl)quinolin-6-yl)-(pyridin-3-yl)methanol.TFA]",–,> 6 µM,–,30%
"COc1ccc(Cc2cc3cc(C(O)(c4cncs4)c4cncn4C)ccc3nc2Cl)cc1 (stereo not drawn) [Example 52, (2-chloro-3-(4-methoxybenzyl)quinolin-6-yl)(1-methyl-1H-imidazol-5-yl)(thiazol-5-yl)methanol.TFA]",–,> 6 µM,–,34%
"COc1nc2ccc(C(O)(c3ccc(C)nc3C)c3cnnn3C)cc2c(C#N)c1Cc1ccc(C(F)(F)F)cc1 (stereo not drawn) [Example 78A, 6-((2,6-Dimethylpyridin-3-yl)(hydroxy)(1-methyl-1H-1,2,3-triazol-5-yl)methyl)-2-methoxy-3-(4-(trifluoromethyl)benzyl)quinoline-4-carbonitrile]",–,–,–,97%
"COc1nc2ccc(C(O)(c3ccc(Cl)cc3)c3cncn3C)cc2c(Cl)c1Cc1ccc(-n2cncn2)cc1 (stereo not drawn) [Example 64A, (3-(4-(1H-1,2,4-Triazol-1-yl)benzyl)-4-chloro-2-methoxyquinolin-6-yl)(4-chlorophenyl)(1-methyl-1H-imidazol-5-yl)methanol]",–,–,–,99%
"COc1nc2ccc(C(O)(c3ccc(C(F)(F)F)nc3)c3cncn3C)cc2c(Cl)c1Cc1ccc(S(C)(=O)=O)cc1 (stereo not drawn) [Example 53, (4-Chloro-2-methoxy-3-(4-(methylsulfonyl)benzyl)quinolin-6-yl)(1-methyl-1H-imidazol-5-yl)(6-(trifluoromethyl)pyridin-3-yl)methanol]",–,0.046 µM,–,101%
"Cn1cncc1C(O)(c1ccc(Cl)cc1)c1ccc2nc(C#N)c(Cc3ccc(-n4cccn4)cc3)c(C#N)c2c1 (stereo not drawn) [Example 71A, 3-(4-(1H-Pyrazol-1-yl)benzyl)-6-((4-chlorophenyl)(hydroxy)(1-methyl-1H-imidazol-5-yl)methyl)quinoline-2,4-dicarbonitrile]",–,0.11 µM,–,97%
"COc1nc2ccc(C(O)(c3ccc(C)nc3C)c3cnnn3C)cc2c(Cl)c1Cc1ccc(C(F)(F)F)cc1 (stereo not drawn) [Example 77A, (4-Chloro-2-methoxy-3-(4-(trifluoromethyl)benzyl)quinolin-6-yl)(2,6-dimethylpyridin-3-yl)(1-methyl-1H-1,2,3-triazol-5-yl)methanol]",–,–,–,103%
"COc1ccc(C(O)(c2ccc3nc(Cl)c(Cc4ccc(-n5cccn5)cc4)c(Cl)c3c2)c2cncn2C)cn1 (stereo not drawn) [Example 21, (3-(4-(1H-Pyrazol-1-yl)benzyl)-2,4-dichloroquinolin-6-yl)(6-methoxypyridin-3-yl)(1-methyl-1H-imidazol-5-yl)methanol.TFA]",–,–,–,103%
"CCc1nc2ccc(C(O)(c3cnnn3C)C3CN(S(C)(=O)=O)C3)cc2c(Cl)c1Cc1ccc(C(F)(F)F)cc1 (stereo not drawn) [Example 91A, (4-Chloro-2-ethyl-3-(4-(trifluoromethyl)benzyl)quinolin-6-yl)(1-methyl-1H-1,2,3-triazol-5-yl)(1-(methylsulfonyl)azetidin-3-yl)methanol]",–,–,–,100%
